The target in assay [1] is BCR fusion to kinase domain of MerTK (Ba/F3-MerTK) (Homo sapiens, UniProt Q12866). As to the kind of experiment: In Cell TAM Kinase Assay Using BaF3 Cellular System. Conditions: Ba/F3 BCR-kinase fusion proliferation, 72 hours, Cell Titer Glo; kinase not given; read-out: IC50. The class given is cell-based, murine. The source says: Three Ba/F3 cell lines (a murine IL-3 dependent pro-B cell line) expressing BCR fusions to the kinase domains of either MerTK (Ba/F3-MerTK), Axl (Ba/F3-Axl), or Tyro3 (Ba/F3-Tyro3) were purchased from Advanced Cellular Dynamics. The IL-3 independence of all 3 cell lines was confirmed. After thawing, the 3 Ba/F3 cell lines were split and maintained in cell culture media, which consisted of RPMI-1640-HEPES (Thermo-Cat #22400-089) with 1× Glutamax (Thermo-Cat #35050-061) and 10% FBS (Sigma-Cat #F4135 (500 ml), at a cell density range of 0.05×10^6−1×10^6 cells/mL 4 days before used in the routine screen. Compound plates were prepared using Nunc™ white 384-well optical bottom plates (ThermoFisher, USA) with compound in 25 nL dimethyl sulfoxide in each well. For routine assays, each of the 3 Ba/F3 cell lines was seeded at 1,000 cells per well with 25 µL of cell culture media directly into 384-well compound plates and incubated for 72 hours. Cell proliferation was then measured by adding 25 μL of Cell Titer Glo 2.0 (Promega, USA). After incubating with Cell Titer Glo at room temperature for 30 mins, the luminescence intensity, which quantifies the cell viability, was measured using an Envision™ plate reader (PerkinElmer, USA). […] In the presence of IL-3, the proliferation of the Ba/F3-Tyro3 cells is no longer dependent on the Tyro3 kinase activity.
BCR fusion to kinase domain of MerTK (Ba/F3-MerTK), sequence (Q12866 21-999 limits assumed, stated change not applied): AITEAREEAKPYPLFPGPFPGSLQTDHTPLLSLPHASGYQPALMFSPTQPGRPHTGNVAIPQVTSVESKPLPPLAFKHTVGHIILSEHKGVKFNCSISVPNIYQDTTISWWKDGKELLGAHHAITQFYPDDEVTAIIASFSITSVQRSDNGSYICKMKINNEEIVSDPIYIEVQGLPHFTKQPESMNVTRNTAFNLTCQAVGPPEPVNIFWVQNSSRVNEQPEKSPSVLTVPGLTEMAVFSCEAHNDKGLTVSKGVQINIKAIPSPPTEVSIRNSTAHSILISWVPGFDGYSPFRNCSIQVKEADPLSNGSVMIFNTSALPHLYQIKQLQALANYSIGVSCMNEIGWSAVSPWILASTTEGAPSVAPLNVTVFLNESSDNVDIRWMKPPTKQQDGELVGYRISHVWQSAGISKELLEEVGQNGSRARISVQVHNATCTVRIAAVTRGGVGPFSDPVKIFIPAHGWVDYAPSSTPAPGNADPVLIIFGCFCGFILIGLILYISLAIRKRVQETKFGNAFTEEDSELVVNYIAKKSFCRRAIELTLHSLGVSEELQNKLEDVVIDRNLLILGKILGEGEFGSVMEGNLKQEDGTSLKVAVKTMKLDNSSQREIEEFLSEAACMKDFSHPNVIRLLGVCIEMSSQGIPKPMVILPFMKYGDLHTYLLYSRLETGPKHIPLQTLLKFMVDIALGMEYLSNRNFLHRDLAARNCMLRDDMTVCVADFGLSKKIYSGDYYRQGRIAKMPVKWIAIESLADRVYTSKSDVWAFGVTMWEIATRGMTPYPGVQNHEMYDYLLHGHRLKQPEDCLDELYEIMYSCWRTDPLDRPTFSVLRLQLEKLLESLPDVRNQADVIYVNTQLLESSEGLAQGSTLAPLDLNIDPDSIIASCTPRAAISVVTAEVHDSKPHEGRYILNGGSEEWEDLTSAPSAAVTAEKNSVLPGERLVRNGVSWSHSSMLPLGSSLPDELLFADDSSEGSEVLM
A general note: ATP-based viability assays read luminescence as a measure of living cells.

The target of a further assay is human MER (528-end) (Homo sapiens (Human), UniProt Q12866). Description: HTRF Kinase Activity Biochemical Assay (KinEASE-TK). Conditions: 10 uM ATP. In outline:
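Activity read-out is the HTRF ratio (665 nm over 620 nm emission, ×10,000; excitation 340 nm) after 1 h detection with 0.375 nM Eu3+-cryptate anti-TK antibody plus 0.062 uM SA-XL665. Preceding kinase step: human MER (528-end), biotinylated TK substrate, 1 h, room temperature.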

The structures appear in SMILES notation. Bounds are passed on as bounds.

As a reminder, the IC50 is the concentration needed to halve the response being measured.

human MER (528-end), sequence (Q12866 528-999 limits assumed): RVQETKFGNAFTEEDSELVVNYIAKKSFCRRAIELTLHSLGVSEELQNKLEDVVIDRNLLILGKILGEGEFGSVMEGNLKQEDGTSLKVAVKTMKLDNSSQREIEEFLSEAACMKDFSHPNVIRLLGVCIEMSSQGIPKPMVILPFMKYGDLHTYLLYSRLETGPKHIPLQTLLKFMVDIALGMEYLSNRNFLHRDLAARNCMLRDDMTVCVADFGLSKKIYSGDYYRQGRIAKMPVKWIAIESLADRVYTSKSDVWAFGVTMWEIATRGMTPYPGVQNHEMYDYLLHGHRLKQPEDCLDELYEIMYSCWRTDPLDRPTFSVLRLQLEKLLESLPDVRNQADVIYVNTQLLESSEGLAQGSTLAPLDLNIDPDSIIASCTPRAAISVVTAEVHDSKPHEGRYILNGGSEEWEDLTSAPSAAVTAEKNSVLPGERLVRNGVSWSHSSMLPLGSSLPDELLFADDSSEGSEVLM

With `Cc1[nH]c2cc(C(=O)N3CC[C@@H](NC(=O)c4cc(-c5cnn(C)c5)cnc4N)C3)ccc2c1C` [Example 698, (R)-2-amino-N-(1-(2,3-dimethyl-1H-indole-6-carbonyl)pyrrolidin-3-yl)-5-(1-methyl-1H-pyrazol-4-yl)nicotinamide], the half-maximal inhibitory concentration (IC50) in assay [1] is more than 1000 nM; against human MER (528-end), 100 to 1000 nM.
Consider `CN1CCN(Cc2ccc(-c3cnc(N)c(C(=O)N[C@@H]4CCN(C(=O)c5ccc(-c6ccccc6)cc5)C4)c3)cc2)CC1` [Example 567, (R)—N-(1-([1,1′-biphenyl]-4-carbonyl)pyrrolidin-3-yl)-2-amino-5-(4-((4-methylpiperazin-1-yl)methyl)phenyl)nicotinamide], for which the IC50 in assay [1] is more than 1000 nM; against human MER (528-end), 10 to 100 nM.
Turning to `CN1CC=C(c2ccc(C(=O)N3CC[C@@H](NC(=O)c4cc(-c5cnn(C)c5)cnc4N)C3)cc2)CC1` [Example 754, (R)-2-amino-N-(1-(4-(1-methyl-1,2,3,6-tetrahydropyridin-4-yl)benzoyl)pyrrolidin-3-yl)-5-(1-methyl-1H-pyrazol-4-yl)nicotinamide], the IC50 (in assay [1]; on human MER (528-end)) was more than 1000 nM in each case.
In the case of `CN(c1ccc(-c2ccc(C(=O)N3CC[C@@H](NC(=O)c4cc(-c5cnn(C)c5)cnc4N)C3)cc2)cc1)c1ccc(N)cc1Cl` [Example 837, (R)-2-amino-N-(1-(4′-((4-amino-2-chlorophenyl)(methyl)amino)-[1,1′-biphenyl]-4-carbonyl)pyrrolidin-3-yl)-5-(1-methyl-1H-pyrazol-4-yl)nicotinamide], the figures for the half-inhibitory concentration (IC50) (in assay [1]; on human MER (528-end)) were more than 1000 nM and 100 to 1000 nM, respectively.
For the compound `CN1CCC(Oc2ccc(-c3ccc(C(=O)N4CC[C@@H](NC(=O)c5cc(-c6cnn(C)c6)cnc5N)C4)cc3)cc2)CC1` [Example 809, (R)-2-amino-5-(1-methyl-1H-pyrazol-4-yl)-N-(1-(4′-((1-methylpiperidin-4-yl)oxy)-[1,1′-biphenyl]-4-carbonyl)pyrrolidin-3-yl)nicotinamide], the IC50 in assay [1] was more than 1000 nM; at human MER (528-end), 10 to 100 nM.
Consider `Cn1cc(-c2cnc(N)c(C(=O)N[C@@H]3CCN(C(=O)c4ccc(Oc5cccc(N)c5)cc4)C3)c2)cn1` [Example 830, (R)-2-amino-N-(1-(4-(3-aminophenoxy)benzoyl)pyrrolidin-3-yl)-5-(1-methyl-1H-pyrazol-4-yl)nicotinamide], for which the IC50 in assay [1] was more than 1000 nM; against human MER (528-end), 100 to 1000 nM.
Taken in the same sequence, the figures for `Cn1cc(-c2cnc(N)c(C(=O)N[C@@H]3CCN(C(=O)c4ccc5cc(NC6CCNCC6)ccc5c4)C3)c2)cn1` [Example 816, (R)-2-amino-5-(1-methyl-1H-pyrazol-4-yl)-N-(1-(6-(piperidin-4-ylamino)-2-naphthoyl)pyrrolidin-3-yl)nicotinamide] were more than 1000 nM and 100 to 1000 nM.
Regarding `Cc1csc(-c2ccc(C(=O)N3CC[C@@H](NC(=O)c4cc(-c5cnn(C)c5)cnc4N)C3)cc2)c1` [Example 525, (R)-2-amino-5-(1-methyl-1H-pyrazol-4-yl)-N-(1-(4-(4-methylthiophen-2-yl)benzoyl)pyrrolidin-3-yl)nicotinamide], the half-inhibitory concentration (IC50) was 100 to 500 nM in assay [1] and 10 to 100 nM on human MER (528-end).
Regarding `Cc1nc(-c2cccc(-c3ccc(C(=O)N4CC[C@@H](NC(=O)c5cc(-c6cnn(C)c6)cnc5N)C4)cc3)c2)no1` [Example 714, (R)-2-amino-N-(1-(3′-(5-methyl-1,2,4-oxadiazol-3-yl)-[1,1′-biphenyl]-4-carbonyl)pyrrolidin-3-yl)-5-(1-methyl-1H-pyrazol-4-yl)nicotinamide], the half-inhibitory concentration (IC50) in assay [1] is more than 1000 nM; against human MER (528-end), 10 to 100 nM.
Taken in the same sequence, the figures for `Cn1cc(-c2cnc(N)c(C(=O)N[C@@H]3CCN(C(=O)c4ccc5cc(NC6CCN(CCO)CC6)ccc5c4)C3)c2)cn1` [Example 817, (R)-2-amino-N-(1-(6-((1-(2-hydroxyethyl)piperidin-4-yl)amino)-2-naphthoyl)pyrrolidin-3-yl)-5-(1-methyl-1H-pyrazol-4-yl)nicotinamide] were more than 1000 nM and 100 to 1000 nM.
As for `Nc1ncc(-c2ccc(N3CCOCC3)nc2)cc1C(=O)N[C@@H]1CCN(C(=O)c2ccc(-c3ccc(F)cc3Cl)cc2)C1` [Example 584, (R)-6-amino-N-(1-(2′-chloro-4′-fluoro-[1,1′-biphenyl]-4-carbonyl)pyrrolidin-3-yl)-6′-morpholino-[3,3′-bipyridine]-5-carboxamide], the half-maximal inhibitory concentration (IC50) in assay [1] is more than 1000 nM; against human MER (528-end) it was 10 to 100 nM.
In the case of `Cn1cc(-c2cnc(N)c(C(=O)N[C@@H]3CCN(C(=O)c4ccc(OCc5cccc([N+](=O)[O-])c5)cc4)C3)c2)cn1` [Example 770, (R)-2-amino-5-(1-methyl-1H-pyrazol-4-yl)-N-(1-(4-((3-nitrobenzyl)oxy)benzoyl)pyrrolidin-3-yl)nicotinamide], the concentration for half-maximal inhibition (IC50) in assay [1] was more than 1000 nM; at human MER (528-end), 100 to 1000 nM.
In the case of `Cn1cc(-c2cnc(N)c(C(=O)N[C@@H]3CCN(C(=O)c4ccc5cc(C(=O)N6CCN(CCO)CC6)ccc5c4)C3)c2)cn1` [Example 786, (R)-2-amino-N-(1-(6-(4-(2-hydroxyethyl)piperazine-1-carbonyl)-2-naphthoyl)pyrrolidin-3-yl)-5-(1-methyl-1H-pyrazol-4-yl)nicotinamide], the IC50 (in assay [1]; against human MER (528-end)) was more than 1000 nM throughout.
Consider `CN1CCC(N(Cc2ccccc2)c2ccc3cc(C(=O)N4CC[C@@H](NC(=O)c5cc(-c6cnn(C)c6)cnc5N)C4)ccc3c2)CC1` [Example 720, (R)-2-amino-N-(1-(6-(benzyl(1-methylpiperidin-4-yl)amino)-2-naphthoyl)pyrrolidin-3-yl)-5-(1-methyl-1H-pyrazol-4-yl)nicotinamide], for which the IC50 in assay [1] is more than 1000 nM; on human MER (528-end), 100 to 1000 nM.
With `Nc1ncc(-c2cnn(Cc3cccnc3)c2)cc1C(=O)N[C@@H]1CCN(C(=O)c2ccc(-c3ccc(F)cc3Cl)cc2)C1` [Example 586, (R)-2-amino-N-(1-(2′-chloro-4′-fluoro-[1,1′-biphenyl]-4-carbonyl)pyrrolidin-3-yl)-5-(1-(pyridin-3-ylmethyl)-1H-pyrazol-4-yl)nicotinamide], the IC50 fell in the range of 500 to 1000 nM in assay [1] and 10 to 100 nM against human MER (528-end).
The corresponding values for `Cc1cccc(-c2ccc(C(=O)N3CC[C@@H](NC(=O)c4cc(-c5cnn(C)c5)cnc4N)C3)cc2)c1` [Example 656, (R)-2-amino-5-(1-methyl-1H-pyrazol-4-yl)-N-(1-(3′-methyl-[1,1′-biphenyl]-4-carbonyl)pyrrolidin-3-yl)nicotinamide] are less than 100 nM and 10 to 100 nM.
As to `Cn1cc(-c2cnc(N)c(C(=O)N[C@@H]3CCN(C(=O)c4ccc(-c5cccc(-c6nnnn6C)c5)cc4)C3)c2)cn1` [Example 712, (R)-2-amino-5-(1-methyl-1H-pyrazol-4-yl)-N-(1-(3′-(1-methyl-1H-tetrazol-5-yl)-[1,1′-biphenyl]-4-carbonyl)pyrrolidin-3-yl)nicotinamide], the results for the 50% inhibitory concentration (IC50) (in assay [1]; at human MER (528-end)) were 500 to 1000 nM and 10 to 100 nM, respectively.
Taken in the same sequence, the figures for `CCN(c1ccc2cc(C(=O)N3CC[C@@H](NC(=O)c4cc(-c5cnn(C)c5)cnc4N)C3)ccc2c1)C1CC(C)(C)N(C)C(C)(C)C1` [Example 721, (R)-2-amino-N-(1-(6-(ethyl(1,2,2,6,6-pentamethylpiperidin-4-yl)amino)-2-naphthoyl)pyrrolidin-3-yl)-5-(1-methyl-1H-pyrazol-4-yl)nicotinamide] were 100 to 500 nM and 10 to 100 nM.

The values are drawn from patent US12378224B2 (Dong-A Socio Holdings Co., Ltd., priority 2016, dated 2025).
